Measurements published in PMC9116259, “Discovery of new nicotinamides as apoptotic VEGFR-2 inhibitors: virtual screening, synthesis, anti-proliferative, immunomodulatory, ADMET, toxicity, and molecular dynamic simulation studies” (Journal of Enzyme Inhibition and Medicinal Chemistry, 2022).

Columns and labels:
HepG-2 cells = experiment: In vitro anti-proliferative activity, MTT test, HepG-2; assay type: cell-based; details: for IC50: Homo sapiens, HepG2, MTT, HepG-2, read-out: In vitro cytotoxicity IC50 HepG-2
Description: (§1) The in vitro anti-proliferative effects of the four synthesised members were assessed against two cancer cell lines namely, hepatocellular carcinoma (HepG-2) and colorectal carcinoma (HCT-116) cell lines, by the standard MTT test[29]. HepG-2 and HCT-116 cell lines were precisely selected relying on their VEGF overexpression. […] The cytotoxicity results were established in Table 7.
(§2) The anti-proliferative activity of the four members was estimated by the MTT protocol as described[38–41] (Supplementary data).

HCT-116 cells [1] = experiment: In vitro anti-proliferative activity, MTT test, HCT-116; assay type: cell-based; details: Homo sapiens, read-out: In vitro cytotoxicity IC50 HCT-116
Description: as §1, §2

VEGFR-2 = biological target: T1, VEGFR-2 (Homo sapiens, UniProt P35968); experiment: Assessment of VEGFR-2 inhibition in HCT-116 cells; assay type: cell-based; details: HCT-116 cells treated at concentrations equal to the cytotoxic ones; read-out: VEGFR-2 protein concentration (called VEGFR-2 inhibitory IC50 in text)
T1 construct: in vitro investigation against VEGFR-2 in HCT-116 cells; endogenous in cells; host or cells: HCT-116
From the text: The designed congeners were, also, subject to an in vitro investigation against VEGFR-2 in HCT-116 cells.
The four selected members were further assessed to measure their inhibitory activities against the VEGFR-2 enzyme following the protocol shown in Supplementary data.

IL6 = experiment: In vitro immunomodulatory assay, IL6 (ELISA) in HCT-116 cells; assay type: cell-based; details: C-6 (21.8 µM), D-1 (3.08 µM), 48 h
Description: (§3) Compounds C-6 and D-1 were further assayed for their immunomodulatory effect on HCT-116 cells. Two immunity-related markers were measured namely, human tumour necrosis factor alpha (TNF-α), and interleukin 6 (IL6). Dexamethasone, a potent inhibitor of both TNF-α and IL6, was used as a positive control.
(§4) The level of TNF-α and IL6 in cell culture supernatants was assessed by the ELISA technique according to the reported procedure[50]^,[51].

TNF-α = experiment: In vitro immunomodulatory assay, TNF-α (ELISA) in HCT-116 cells; assay type: cell-based, human; details: C-6 (21.8 µM), D-1 (3.08 µM), 48 h
Description: as §3, §4

BAX = BAX level in treated HCT-116 cells; assay type: cell-based
Description: (§5) Upregulation of the proapoptotic genes in addition to the downregulation of the anti-apoptotic ones, thus, confirmed the apoptotic behaviour of the designed compound.
(§6) Estimation of caspase-3 levels after treatment of cells with compound D-1 was performed according to the protocol described by M. Andersson et al.[42]. While Bax and Bcl-2 cellular levels were evaluated for D-1 in HCT-116 cells according to the reported protocol[43] (Supplementary data).

HCT-116 cells [2] = experiment: Annexin-V/propidium iodide apoptosis assay in HCT-116 cells; assay type: cell-based; details: HCT-116, 3.08 µM for 48 h
Description: Since the induction of apoptosis is a key determinant in the drug’s therapeutic outcome, the ability of the best cytotoxic member D-1 to induce apoptosis in colorectal carcinoma (HCT-116) cells was evaluated using Annexin-V/propidium iodide (PI) staining assay. […] The percentage of early and late apoptotic populations elevated from 0.7% and 1.73% in the untreated cells to 4.36% and 17.62% in the D-1 treated cells (Table 10 and Figures 11 and 12).
Annexin‐V‐FITC assay for compound D-1 on HCT-116 cells according to the reported procedure[15]^,[47–49] (Supplementary data).

caspase-8 = experiment: Caspase-8 concentration in treated HCT-116 cells; assay type: cell-based
HCT-116 cells [3] = experiment: Cell cycle analysis by flow cytometry in HCT-116 cells; assay type: cell-based; details: HCT-116, 3.08 µM for 48 h
From the text: Aiming to obtain a further understanding of the mechanism that triggers the anticancer activity of D-1, the cell cycle progression was investigated using flow cytometry in HCT-116 cells.
Based on the protocol referred to by Léonce et al., the flow cytometric analysis for congener D-1 was done[19]^,[44–46] (Supplementary data).

Bcl-2 = Bcl-2 level in treated HCT-116 cells; assay type: cell-based
Description: as §5, §6

T1 sequence (P35968 20-1356): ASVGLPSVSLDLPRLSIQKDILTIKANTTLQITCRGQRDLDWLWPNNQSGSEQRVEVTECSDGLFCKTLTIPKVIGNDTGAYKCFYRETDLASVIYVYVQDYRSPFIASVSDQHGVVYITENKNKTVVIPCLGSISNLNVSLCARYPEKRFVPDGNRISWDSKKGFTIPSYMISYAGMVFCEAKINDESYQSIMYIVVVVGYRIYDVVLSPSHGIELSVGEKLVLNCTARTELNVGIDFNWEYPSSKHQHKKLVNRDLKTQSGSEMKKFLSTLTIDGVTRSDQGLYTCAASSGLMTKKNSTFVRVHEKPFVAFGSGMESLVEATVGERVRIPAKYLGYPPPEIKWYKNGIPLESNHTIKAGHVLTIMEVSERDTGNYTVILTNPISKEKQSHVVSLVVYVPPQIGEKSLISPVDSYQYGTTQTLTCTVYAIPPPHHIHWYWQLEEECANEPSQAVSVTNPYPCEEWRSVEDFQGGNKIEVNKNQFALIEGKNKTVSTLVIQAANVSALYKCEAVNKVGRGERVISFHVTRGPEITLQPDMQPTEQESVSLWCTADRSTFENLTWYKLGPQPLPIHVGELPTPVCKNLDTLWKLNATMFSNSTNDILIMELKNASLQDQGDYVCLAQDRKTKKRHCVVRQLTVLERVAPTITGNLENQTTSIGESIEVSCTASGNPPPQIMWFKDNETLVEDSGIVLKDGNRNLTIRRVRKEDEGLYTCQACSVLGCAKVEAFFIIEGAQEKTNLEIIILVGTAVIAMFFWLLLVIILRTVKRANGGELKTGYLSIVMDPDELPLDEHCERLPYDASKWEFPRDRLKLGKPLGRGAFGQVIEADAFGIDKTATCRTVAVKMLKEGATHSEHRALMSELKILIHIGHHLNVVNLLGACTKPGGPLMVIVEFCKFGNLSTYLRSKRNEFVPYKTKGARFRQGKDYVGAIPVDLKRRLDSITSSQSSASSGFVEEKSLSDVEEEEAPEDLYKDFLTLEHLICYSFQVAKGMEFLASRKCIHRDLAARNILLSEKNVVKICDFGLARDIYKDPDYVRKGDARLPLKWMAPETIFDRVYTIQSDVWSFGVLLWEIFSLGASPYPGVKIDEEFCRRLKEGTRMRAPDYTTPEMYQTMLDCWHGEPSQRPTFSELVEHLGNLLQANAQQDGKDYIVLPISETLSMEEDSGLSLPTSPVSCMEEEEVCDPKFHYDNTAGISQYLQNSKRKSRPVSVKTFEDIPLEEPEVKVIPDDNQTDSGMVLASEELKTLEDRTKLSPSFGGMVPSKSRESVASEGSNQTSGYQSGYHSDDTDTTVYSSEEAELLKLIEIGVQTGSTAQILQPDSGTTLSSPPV

SMILES | IC50 (HepG-2 cells) | IC50 (HCT-116 cells [1]) | IC50 (VEGFR-2) | % Inhibition of IL6 (IL6) | % Inhibition of TNF-α (TNF-α) | other results
CC(=NNC(=O)c1cccnc1)c1ccc(NC(=O)c2cccnc2)cc1 [Compound A-1, N-(4–(1-(2-Nicotinoylhydrazineylidene)ethyl)phenyl)nicotinamide] | 18.07 ± 0.052 µM | 34.9 ± 0.084 µM | 22.1 nM |  |  | 
CC(=NNC(=O)c1ccccc1)c1ccc(NC(=O)c2cccnc2)cc1 [Compound B-1, N-(4–(1-(2-Benzoylhydrazineylidene)ethyl)phenyl)nicotinamide] | 17.4 ± 0.05 µM | 19.6 ± 0.052 µM | 80 nM |  |  | 
CC(=NO)c1ccc(NC(=O)c2cccnc2)cc1 [Compound C-6, N-(4–(1-(Hydroxyimino)ethyl)phenyl)nicotinamide] | 15.9 ± 0.045 µM | 21.8 ± 0.057 µM | 15.7 nM | 75.21% | 86.48% | 
CC(=NNc1ccccc1)c1ccc(NC(=O)c2cccnc2)cc1 [Compound D-1, N-(4–(1-(2-Phenylhydrazineylidene)ethyl)phenyl)nicotinamide] | 4.09 ± 0.005 µM | 3.08 ± 0.002 µM | 23.1 nM | 85.64% | 91.19% | increase of BAX expression level (BAX; HCT-116 cells, versus control): 9.52 fold; BAX (BAX; treated HCT-116 cells): 401.79 pg/mL; Apoptosis Early (HCT-116 cells [2]; % given in Figure 11): 4.36%; Apoptosis Late (HCT-116 cells [2]; % given in Figure 11): 17.62%; Apoptosis Total (HCT-116 cells [2]; % given in Figure 11): 23.68%; Necrosis (HCT-116 cells [2]; % printed in Figure 11): 1.7%; increase of caspase-8 level (caspase-8; HCT-116 cells, versus control): 10.41 fold; Caspase-8 (caspase-8; treated HCT-116 cells): 523.61 pg/mL; activity against HepG-2, fold more than sorafenib (HepG-2 cells; ratio of IC50 values versus sorafenib): about 1.2 fold; %G0-G1 (HCT-116 cells [3]): 41.26%; %G2-M (HCT-116 cells [3]): 30.37%; %Pre-G1 (HCT-116 cells [3]): 23.68%; %S (HCT-116 cells [3]): 28.37%; decrease of Bcl-2 level to (Bcl-2; HCT-116 cells, versus control): 0.23 fold; Bcl-2 (Bcl-2; treated HCT-116 cells): 1.274 pg/mL
C[C@@H]1C[C@H]2[C@@H]3CCC4=CC(=O)C=C[C@]4(C)[C@@]3(F)[C@@H](O)C[C@]2(C)[C@@]1(O)C(=O)CO [Dexamethasone, reference compound] |  |  |  | 93.15% | 82.47% | 
CNC(=O)c1cc(Oc2ccc(NC(=O)Nc3ccc(Cl)c(C(F)(F)F)c3)cc2)ccn1 [Sorafenib, sorafenib, reference compound] | 5.28 ± 0.21 µM | 7.28 ± 0.58 µM |  |  |  | 
